These results are taken from patent US20050059658A1, “Pyridazinone” (priority 2001, published 2005).

What is called CC50 is the concentration at which the toxic effect on the cells reaches its halfway point. A low value points to harm at low concentration. What is called EC50 is the concentration that produces a half-maximal response. Read a high EC50 as weaker potency. As usually defined, the melting point is the temperature of the solid-liquid transition.

Data set [1] is described as follows: Cytotoxicity on NHDF cells in the anti-HCMV cytopathogenicity test. It is filed as cell-based. The conditions noted are these: human, NHDF cells (normal human dermal fibroblasts), 6 days incubation, visual evaluation. How it is done: (§1) The test compounds are used as 50 millimolar (mM) solutions in dimethyl sulfoxide (DMSO). The reference compounds used are ganciclovir, foscarnet and cidofovir. In each case 2 μl of the 50, 5, 0.5 and 0.05 mM DMSO stock solutions are added to in each case 98 μl of cell culture medium in row […] in duplicate, and 1:2 dilutions with in each case 50 μl of medium are then made up to row 11 of the 96-well plate. The wells in rows 1 and 12 each contain 50 μl of medium. In each case 150 μl of a suspension of 1×10^4 cells (NHDF=normal human dermal fibroblasts) (row 1 =cell control) and, for rows 2-12, a mixture of HCMV-infected and non-infected NHDF cells (M.O.I.=0.001-0.002), i.e. 1-2 infected cells per 1000 non-infected cells, are then pipetted into the wells. Row 12 (without substance) serves as virus control. The final test concentrations are 250-0.0005 μM. The plates are incubated at 37° C./5% CO2 for 6 days, i.e. until all cells in the virus controls are infected (100% cytopathogenic effect [CPE]). The wells are then fixed by adding a mixture of formalin and Giemsa's dye and stained (30 minutes), washed with doubly distilled water and dried in a drying cabinet at 50° C. The plates are then examined visually using an overhead microscope (Plaque multiplier from Technomara). Using the test plates, the following data can be determined: • CC50 (NHDF)=substance concentration in μM where, compared to the untreated cell control, no cytostatic effects on the cells are evident; • EC50 (HCMV)=substance concentration in μM where the CPE (cytopathic effect) is inhibited by 50% compared to the untreated virus control; • SI (selectivity index)=CC50 (NHDF)/EC50 (HCMV). In vivo Action: HCMV Xenograft Gelfoam® Model: Animals: […]

Data set [2] deals with human cytomegalovirus (HCMV). The experiment in a line: Anti-HCMV (anti-human cytomegalovirus) cytopathogenicity test. Format: cell-based. The conditions noted are these: for EC50: Human betaherpesvirus 5, 144 h, HCMV-infected NHDF cells, M.O.I. 0.001-0.002, 6 days, 50% inhibition of CPE; for SI HCMV: selectivity index = CC50 (NHDF)/EC50 (HCMV). As to the method:
as §1
In general terms: Damage to the host cells serves as the signal in cytopathic effect assays.

Data set [3] concerns Human cytomegalovirus (HCMV), DavisSmith strain. The experiment in a line: HCMV xenograft Gelfoam model. The conditions noted are these: perorally three times a day for 8 days, SCID mice, HCMV-infected NHDF cells in Gelfoam sponge. Format: in vivo, immunodeficient mice. The source says: Female immunodeficient mice (16-18 g), Fox Chase SCID or Fox Chase SCID-NOD or SCID-beige, 3-4 weeks old, are obtained from commercial breeders (Bomholtgaard, Jackson). The animals are kept under sterile conditions (including litter and feed) in isolation units.
Human cytomegalovirus (HCMV), DavisSmith strain, is cultivated in vitro on embryonal human dermal fibroblasts (NHDF cells). Following infection of the NHDF cells with a multiplicity of infection (M.O.I.) of 0.01, the virus-infected cells are harvested after 5-7 days and, in the presence of minimal essential medium (MEM), 10% fetal calf serum (FCS) with 10% DMSO, stored at −40° C. Following serial dilution of the virus-infected cells in steps of ten, the titer is determined on 24-well plates of confluent NHDF cells after vital stain with Neutral Red.
Collagen sponges (Gelfoam®; from Peasel & Lorey, order No. 40734; K. T. Chong et al., Abstracts of 39th Interscience Conference on Antimicrobial Agents and Chemotherapy, 1999, p. 439) of a size of 1×1×1 cm are initially wetted with phosphate-buffered saline (PBS), the enclosed air bubbles are removed by degassing and the sponges are then stored in MEM+10% FCS. […] What is determined is the number of infectious virus particles after substance treatment compared to the placebo-treated control group.

Molecules are shown by their SMILES. Bounds are passed on as bounds.

In the case of `CC1(C)CC(c2ccccc2NC(=O)Nc2ccc(F)cc2F)=NNC1=O` [Example 5, N-(2,4-Difluorophenyl)-N′-[2-(5,5-dimethyl-6-oxo-1,4,5,6-tetrahydro-3-pyridazinyl)-phenyl]urea], the CC50 at 6 days in data set [1] amounted to 125 µM. In data set [2], the concentration for a half-maximal effect (EC50) was 6.1 µM and the “SI HCMV” value is 21.

In turn, `CC1(C)CC(c2cccc(NC(=O)Nc3ccc(F)c(F)c3)c2)=NNC1=O` [Example 6, N-(3,4-Difluorophenyl)-N′-[3-(5,5-dimethyl-6-oxo-1,4,5,6-tetrahydro-3-pyridazinyl)-phenyl]urea] showed a melting point of 200 °C.

`Cc1cc(Cl)ccc1NC(=O)Nc1cccc(C2=NNC(=O)CC2(C)C)c1` [Example 4, N-(4-Chloro-2-methylphenyl)-N′-[3-(4,4-dimethyl-6-oxo-1,4,5,6-tetrahydro-3-pyridazinyl)phenyl]urea]: the melting point is 232 °C. The same compound showed a CC50 at 6 days in data set [1] of more than 23 µM. Also, in data set [2], the EC50 was found to be 0.15 µM and the “SI HCMV” value was more than 153. The “Murine xenograft model ED50 t.i.d.” value in data set [3] was found to be 8 mg]kg.

In the case of `CC1(C)CC(=O)NN=C1c1cccc(NC(=O)Nc2cccc(Br)c2)c1` [Example 3, N-(3-Bromophenyl)-N′-[3-(4,4-dimethyl-6-oxo-1,4,5,6-tetrahydro-3-pyridazinyl)-phenyl]urea], the melting point was determined as 207 °C. The compound further had a CC50 at 6 days in data set [1] of 24 µM. Moreover, in data set [2], a half-maximal effect (EC50) was put at 0.13 µM and the “SI HCMV” value amounted to 185.

`CC1(C)CC(=O)NN=C1c1cccc(NC(=O)Nc2ccc(F)c(Cl)c2)c1` [Example 2, N-(3-Chloro-4-fluorophenyl)-N′-[3-(4,4-dimethyl-6-oxo-1,4,5,6-tetrahydro-3-pyridazinyl)phenyl]urea] had a half-maximal cytotoxic concentration (CC50) at 6 days in data set [1] of 23 µM. Besides, in data set [2], the EC50 was 0.07 µM and the “SI HCMV” value was 329.

For the compound `CC1(C)CC(=O)NN=C1c1cccc(NC(=O)Nc2ccc(F)cc2F)c1` [Example 1, N-(2,4-Difluorophenyl)-N′-[3-(4,4-dimethyl-6-oxo-1,4,5,6-tetrahydro-3-pyridazinyl)-phenyl]urea], the melting point worked out at 213 °C. This compound yielded a CC50 at 6 days in data set [1] of 125 µM. In data set [2], the concentration for a half-maximal effect (EC50) came out at 0.96 µM and the “SI HCMV” value came to 130. Further, the “Murine xenograft model ED50 t.i.d.” value in data set [3] came out at 18 mg]kg.
